Assay: Formulation preparation behaviour (jet pulverization, granulation)
Format: physicochemical
Conditions: e.g. soluble granule, sodium salt
Text: The crystalline 2.5 hydrate of topramezone sodium salt of the present invention has huge advantages over the anhydrous form of topramezone sodium salt with respect to formulation preparation. The anhydrous topramezone sodium salt can be prepared according to the preparation method of the topramezone potassium salt alike compound reported in US2002025910A. […] Furthermore, the formulation preparation process is difficult. For example, when preparing the soluble granule, creaming and caking of the ingredients frequently occurs, and granulation thus becomes difficult.

Row | Structure (SMILES) | behaviour during jet pulverization / granulation
1 | Cc1c(C(=O)c2cnn(C)c2[O-])ccc(S(C)(=O)=O)c1C1=NOCC1.[Na+] [anhydrous topramezone sodium salt] | easy to agglomerate during jet pulverization
2 | Cc1c(C(=O)c2cnn(C)c2[O-])ccc(S(C)(=O)=O)c1C1=NOCC1.[Na+] [crystalline 2.5 hydrate of topramezone sodium salt] | can be granulated easily

Source: patent US12365671B2, “Crystalline hydrate of topramezone sodium salt and preparation method therefor” (ROTAM AGROCHEM INTERNATIONAL COMPANY LIMITED, priority 2021, dated 2025)
